Data on three compounds can be found in US7956188B2, “Acetamide compounds as fungicides” (Syngenta Crop Protection, Inc., priority 2004, dated 2011).

For orientation: melting point means the temperature, or range, at which the solid turns liquid.

As to `CSC(Oc1cc(C)c(Br)c(C)c1)C(=O)NC(C)(C)C` (stereo not drawn) [12 (15), 2-(4-bromo-3,5-dimethylphenoxy)-2-methylthio-N-(2-methyl-prop-2-yl)acetamide], the melting point fell in the range of 123 to 125 °C.

Compound `CSC(Oc1cc(Cl)c2ncc(Br)cc2c1)C(=O)NC(C)(C)C` (stereo not drawn) [12 (62), 2-(3-bromo-8-chloro-quinolin-6-yloxy)-N-tert-butyl-2-methylsulfanyl-acetamide] had a melting point of 160 to 161 °C.

For the compound `CSC(Oc1cc(I)c2ncc(Br)cc2c1)C(=O)NC(C)(C)C` (stereo not drawn) [12 (62A), 2-(3-bromo-8-iodo-quinolin-6-yloxy)-N-tert-butyl-2-methylsulfanyl-acetamide], the melting point was in the range of 171 to 172 °C.
